Test results reported in patent publication US20220162215A1, “COMPOSITIONS AND METHODS OF USING THE SAME FOR TREATMENT OF NEURODEGENERATIVE AND MITOCHONDRIAL DISEASE” (MITOKININ, INC., priority 2019, published 2022).

How the values were obtained:
PINK1 = molecular target: T1, PINK1 (Homo sapiens, UniProt Q9BXM7); experiment: PINK1 phosphorylation in HeLa cells (PhosTag gel electrophoresis); format: cell-based
T1 construct: for each cell type tested (HeLa-MKYP WT or PINK1^KO); endogenous in cells; host or cells: HeLa-MKYP (WT) / HeLa cells
T1 sequence (Q9BXM7 78-581): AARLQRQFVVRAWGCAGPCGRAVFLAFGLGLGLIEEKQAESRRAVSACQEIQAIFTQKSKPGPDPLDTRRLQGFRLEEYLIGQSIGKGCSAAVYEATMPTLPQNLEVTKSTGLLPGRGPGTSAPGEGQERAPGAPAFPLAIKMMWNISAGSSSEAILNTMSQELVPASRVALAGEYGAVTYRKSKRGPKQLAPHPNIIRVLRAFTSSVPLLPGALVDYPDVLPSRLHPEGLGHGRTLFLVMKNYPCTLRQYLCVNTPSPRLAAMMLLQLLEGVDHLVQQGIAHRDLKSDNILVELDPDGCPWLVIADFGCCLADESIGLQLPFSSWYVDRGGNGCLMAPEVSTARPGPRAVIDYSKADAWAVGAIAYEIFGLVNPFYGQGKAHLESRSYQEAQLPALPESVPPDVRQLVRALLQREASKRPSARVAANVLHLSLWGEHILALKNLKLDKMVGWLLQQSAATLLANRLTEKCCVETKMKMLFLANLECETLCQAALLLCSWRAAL

α-synuclein = experiment: Preformed α-syn amyloid fibril (PFF) mouse model; format: in vivo; details: oral dosing; for all analyzed species of α-synuclein: 50 mg/kg max
Method: Animals. C57BL6 mice were obtained from the Jackson Laboratories.
Injection material and stereotaxic injections. Purification of recombinant α-synuclein proteins and in vitro fibril assembly was performed as previously described (K. C. Luk et al., Intracerebral inoculation of pathological α-synuclein initiates a rapidly progressive neurodegenerative α-synucleinopathy in mice. J. Exp. Med. 209, 975 (2012)) from full-length wildtype mouse α-synuclein (5 mg/mL). Assembly reactions were agitated in an Eppendorf orbital mixer (1,000 rpm at 37° C.) and α-synuclein pre-formed fibrils (PFFs) harvested after 5 d. Preparations were diluted in sterile PBS and sonicated briefly with a hand-held probe sonicator (Fisher Scientific Model 120) prior to injection. Mice between 2 and 3 months of age were anesthetized with ketamine hydrochloride (100 mg/kg, i.p.) and xylazine (10 mg/kg, i.p.) and stereotaxically injected in one hemisphere of the striatum with PFFs (5 μg). Control animals received sterile PBS. To target the striatum, a single needle insertion (co-ordinates: +1.0 mm relative to Bregma, +2.0 mm from midline) into the right forebrain was used (+2.6 mm beneath the dura). Injections were performed using a motorized injector at a rate of 0.2 μL per min (2.5 μL total per site) with the needle in place for >5 min at each target. Animals were monitored regularly following recovery from surgery. Starting 7 days after surgery, a daily oral dose of EP-0035985 or vehicle control was administered, continuing for the duration of the study. The animals were sacrificed at 30 days post injection by overdose with isofluorane, and their brains removed following transcardial perfusion with PBS. Brains were sectioned into striatum and ventral midbrain sections, and immediately frozen and stored at −80° C. until used.
Biochemical analysis. Dissected brain regions of interest were extracted as in Yun, P. S., et al Nat Med. 2018 July; 24(7):931-938. Briefly, sections were homogenized in brain lysis buffer containing 10 mM Tris-HCl, pH 7.4, 150 mM NaCl, 5 mM EDTA, 0.5% IGEPAL® CA-630 (Nonidet P-40), 1× Halt™ Protease and Phosphatase Inhibitor Cocktail. 0.2 mL of buffer was used per tissue section. Samples were homogenized using a mortar pestle and then 0.3 mL brain lysis buffer was added before clearing at 300×g for 3 minutes at 4° C. Supernatant was then transferred to a new tube and cleared at 22,000×g for 20 min at 4° C. The supernatant should be transferred and the pellet washed with 0.3 mL brain lysis buffer before repeating the clearing step. Subsequent to this the pellet should be further homogenized (sonicating for 20 s at 20% amplitude on ice) in 0.2 mL per sample SDS-Brain lysis buffer containing 10 mM Tris-HCl, pH 7.4, 150 mM NaCl, 5 mM EDTA, 0.5% Nonidet P-40, 1% SDS, 0.5% sodium deoxycholate. Protein concentrations were determined using the BCA assay (Pierce) and samples (10 μg total protein) were separated on SDS-polyacrylamide gels (4-20% gradient) and transferred onto nitrocellulose membranes. Blots were blocked in 5% BSA in TBST and probed using various primary antibodies. Target antigens were detected using an Odyssey FC scanner (LiCor) following incubation with the appropriate infrared secondary antibodies.

[1] = Visual inspection of crystallization; format: physicochemical; parameters: key: 1: yes crystals; 0: no crystals; details: Tables 5A-5D
Method: Briefly, the Hela MKYP (Mito-Keima/YFP-Parkin) cells were seeded at 10K cells/well. EP/MTK compounds were added at seeding (cells were still in suspension). The cells were incubated with the EP/MTK compounds for 16 hours, then 1 μM FCCP/oligomycin was added for 6 hours. Prior to harvesting, cells were scored by eye under 20× magnification for the presence or absence of crystalline or aggregated compound, or round cells.

mitotoxicity = experiment: Mitotox safety margin (therapeutic window); format: cell-based
[2] = In vivo pharmacokinetic properties (Table 7)

## FC(F)(F)c1cc2c(NC3CCCc4ccccc43)ncnc2[nH]1 (stereo not shown) [Compound 15]
PINK1; 0.5, 1 μM FCCP, FIG. 33C
  pS65 Ubiquitin: significant increase in pS65 Ubiquitin at 0.5, 1 μM FCCP
PINK1; HeLa cells, 2.8 μM compound and 0.5, 1.0, or 2.0 μM FCCP, FIG. 33A
  levels of PINK1phospho: significantly increases the levels of PINK1phospho
α-synuclein; contralateral striatum, FIG. 30
  all analyzed species of α-synuclein: drives a decrease in all analyzed species of α-synuclein at 50 mg/kg max
α-synuclein; ipsilateral striatum, FIG. 29
  all analyzed species of α-synuclein: drives a decrease in all analyzed species of α-synuclein at 50 mg/kg max
α-synuclein; ipsilateral striatum, FIG. 26
  c-terminal truncation of α-synuclein (14 kDA): drives a decrease in c-terminal truncation of α-synuclein (14 kDA)
α-synuclein; ipsilateral striatum, FIG. 27
  pS129 monomer of α-synuclein: drives a decrease in pS129 monomer of α-synuclein
α-synuclein; ipsilateral striatum, FIG. 28
  total monomer of α-synuclein: drives a decrease in total monomer of α-synuclein
α-synuclein; ventral midbrain, FIG. 31
  all analyzed species of α-synuclein: drives a decrease in all analyzed species of α-synuclein at 50 mg/kg max
[1]; 1.6 μM
  Visual inspection of crystallization: 0
[1]; 3.1 μM
  Visual inspection of crystallization: 0
[1]; 6.3 μM
  Visual inspection of crystallization: 0
[1]; 12.5 μM
  Visual inspection of crystallization: 0
[1]; 25.0 μM
  Visual inspection of crystallization: 0
[1]; 50.0 μM
  Visual inspection of crystallization: 0
mitotoxicity; class of the Ratio
  Mitotox safety margin (Therapeutic window): ++++ (ratio 30<)
mitotoxicity; highest concentration with no observable mitotoxicity (μM) divided by the EC50 (μM) of the compound
  Ratio**: 40.02
[2]; IV (1 mg/kg)
  AUC (obs): 1.4 µM·h
  Cmax: 1450 nM
[2]; PO (10 mg/kg)
  Cmax: 1080 nM
  F %: 17.4%
[2]; PO (50 mg/kg)
  AUC (obs): 27.4 µM·h
  Cmax: 9800 nM
  F %: 37.9%
  T1/2: 3.9 h
[2]; in vivo dosing, FIG. 23 and Table 7
  bioavailability: good bioavailability
[2]; mouse, in vivo, IV (1 mg/kg)
  AUC(0-inf): 1.5 µM·h
  half-life: 1.4 h
[2]; mouse, in vivo, PO (10 mg/kg)
  AUC: 2.4 µM·h
  AUC(0-inf): 2.6 µM·h
  half-life: 2 h
[2]; mouse, in vivo, PO (50 mg/kg)
  AUC(0-inf): 35.5 µM·h
